Data reported in patent publication US7285642B2, “Composition and method for modulating dendritic cell-T cell interaction” (Katholieke Universiteit Nijmegen, priority 2000, dated 2007).

How the values were obtained:
[1] = target: T1, DC-SIGN (Homo sapiens, UniProt Q9NNX6); assay: Binding of DC-SIGN to ICAM-2 and ICAM-3 expressing K562 cells (FIG. 8); assay type: cell-based
T1 construct: expressed in transfected cells; host or cells: COS7 cells, transient transfection with pRc/CMV-DC-SIGN (DEAE dextran)
T1 sequence (Q9NNX6 1-404): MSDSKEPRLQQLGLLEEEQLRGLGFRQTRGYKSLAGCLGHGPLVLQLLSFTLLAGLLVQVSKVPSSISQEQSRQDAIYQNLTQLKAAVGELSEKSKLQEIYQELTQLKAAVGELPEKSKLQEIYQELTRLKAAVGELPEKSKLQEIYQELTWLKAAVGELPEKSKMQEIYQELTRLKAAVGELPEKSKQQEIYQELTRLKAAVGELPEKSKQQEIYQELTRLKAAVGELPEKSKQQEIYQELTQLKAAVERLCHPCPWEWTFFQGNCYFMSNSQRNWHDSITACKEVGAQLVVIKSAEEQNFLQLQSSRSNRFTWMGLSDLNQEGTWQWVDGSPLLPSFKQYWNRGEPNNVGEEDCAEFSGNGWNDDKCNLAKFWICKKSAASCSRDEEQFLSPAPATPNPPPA

[2] = system: adhesion of DC to ICAM-3; assay: Fluorescent beads adhesion assay: adhesion of DC to ICAM-3Fc beads; assay type: cell-based, human; conditions: 5 mM
Protocol: Exploiting a novel flowcytrometric adhesion assay involving ICAM-3-Fc chimera coated fluorescent beads (Geijtenbeek et al.), the capacity of DC, resting peripheral blood lymphocytes (PBL) and monocytes to bind to this integrin ligand was tested. […] Freshly isolated PBL, monocytes and DC were incubated for 30 min. at 37° C. with either ICAM-1Fc or ICAM-3Fc fluorescent beads. After washing, the percentage of cells that bound beads was determined by flowcytometry. • 1B: Adhesion of leukocytes to ICAM-3 after activation of β2-integrins. Binding of fluorescent ICAM-3Fc beads was measured after 30 min. at 37° C. in the presence of either PMA 980 nM) or the activating anti-β2-integrin antibody KIM185 (10 μg/ml). Inhibition of the LFA-1 specific adhesion after PMA activation was determined in the presence of the blocking anti-LFA-1 antibody NKI-L15 (20 μg/ml). • 1C: Adhesion of DC to ICAM-3 in the presence of blocking antibodies (20 μg/ml) against β2-integrins (NKI-L19), β1-integrin (AIIB2), ICAM-3 (CBR-IC3/1, CBR-IC3/2) or in the presence of EDTA (5 mM) or EGTA (5 mM). The adhesion was determined as described in FIG. 1A.
DC were cultured from monocytes in the presence of GM-CSF and IL-4. […] Adhesion was determined as described in FIG. 1A. […]

[3] = target: T1, DC-SIGN; assay: Adhesion of COS7-DC-SIGN cells to ICAM-3 beads; assay type: cell-based; conditions: 5 mM
From the text: RT-PCR analysis with primers based on the gp120-binding C-type lectin sequence, on RNA isolated from DC yielded a PCR product of the expected length of 1237 nt. The DC-specific PCR product was cloned and sequencing confirmed 100% identity with the human gp120-binding lectin (FIG. 3B). Flowcytometric analysis of COS7 cells, transfected with the cDNA encoding the placenta gp120-binding C-type lectin, unequivocally proves that the gp120 binding C-type lectin is indeed identical to DC-SIGN (FIG. 4A). […] COS7 cells were transfected and the adhesion was determined as described in FIG. 1A, respectively. Adhesion of COS7-DC-SIGN cells to ICAM-3 was measured in the presence of EGTA (5 mM) and blocking antibodies against DC-SIGN (AZN-D1), ICAM-3 (CBR-IC3/1, CBR-IC3/2) and β2 integrinds (AZN-L19). A representative experiment out of 3 is shown (SD<5%). About 30% of the transfected COS7 cells are stained with anti-DC-SIGN-antibody and therefore express DC-SIGN. […]
Carboxylate-modified TransFluorSpheres (488/645 nm, 1.0 μm; Molecular Probes, Eugene, Oreg.) were coated with ICAM-1 Fc and ICAM-3 Fc as described previously (Geijtenbeek et al., 1999 submitted). […] Adhesion was determined by measuring the percentage of cells, which have bound fluorescent beads, by flowcytometry using the FACScan (Becton and Dickinson & Co., Oxnard, Calif.).

Row | Compound | Inhibition of DC-SIGN binding to K562 cells expressing ICAM-2 or ICAM-3 [1] | Inhibition of adhesion of DC to ICAM-3Fc fluorescent beads [2] | Inhibition of adhesion of COS7-DC-SIGN cells to ICAM-3 [3]
1 | mannan | can be inhibited |  | 
2 | O=C(O)CN(CCOCCOCCN(CC(=O)O)CC(=O)O)CC(=O)O [EGTA] |  | completely blocked | blocks adhesion completely
3 | O=C(O)CN(CCN(CC(=O)O)CC(=O)O)CC(=O)O [EDTA] |  | completely blocked | 
